Results taken from the supplement of paper PMC10627819.

Key:
[1] = system: S. pneumoniae D39V; assay: Bliss interaction score (quartile over a dose matrix) (fitness difference); higher = more antagonism (negative = synergy)
How it was run: (§1)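 Combination data were used to infer fitness under each single drug. Fitness is the OD595 at entry into stationary phase divided by the robust mean of the plate's no-drug wells, with a cap of 1. The Bliss score is the observed minus the expected product fitness, summarised by quartiles over technical, biological and donor/recipient replicates.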

[2] = system: B. subtilis 168; assay: as above
How it was run: as §1

[3] = system: S. aureus Newman; assay: as above
How it was run: as §1

[4] = system: S. aureus DSM 20231; assay: as above
How it was run: as §1

[5] = system: B. subtilis 168; assay: fitness (endpoint OD595 vs no drug) (fraction); higher = more growth
How it was run: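 Volumes were 30 µl per well, or 55 µl for S. pneumoniae, in 384-well plates inoculated at OD595 0.01. Media were TSB, LB Lennox or CY at 37 °C, and OD595 was read every 30 min for 14 h with first-reading background subtraction. Fitness is the ratio of optical density at stationary-phase entry to the robust mean of no-drug controls. That ratio is capped at 1.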
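Throughout, for Bliss interaction score (quartile over a dose matrix): first quartile when negative (synergy) and third quartile when positive (antagonism).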

CC[C@H](C)[C@H](N)C1=N[C@H](C(=O)N[C@@H](CC(C)C)C(=O)N[C@H](CCC(=O)O)C(=O)N[C@H](C(=O)N[C@H]2CCCCNC(=O)[C@H](CC(N)=O)NC(=O)[C@@H](CC(=O)O)NC(=O)[C@H](Cc3cnc[nH]3)NC(=O)[C@@H](Cc3ccccc3)NC(=O)[C@H]([C@@H](C)CC)NC(=O)[C@@H](CCCN)NC2=O)[C@@H](C)CC)CS1 [Bacitracin] + CCC(C)C1C(=O)NC(=C)C(=O)NC(C(=O)NC(CSCC(C(=O)N1)NC(=O)/C(=C/C)/NC(=O)C(C(C)CC)N)C(=O)NC2C(SCC(NC(=O)CNC(=O)C3CCCN3C2=O)C(=O)NC(CCCCN)C(=O)NC4C(SCC(NC(=O)CNC(=O)C(NC(=O)C(NC(=O)C(NC(=O)CNC4=O)C)CC(C)C)CCSC)C(=O)NC(CC(=O)N)C(=O)NC(CCSC)C(=O)NC(CCCCN)C(=O)NC5C(SCC6C(=O)NC(C(=O)NC(CSC(C(C(=O)N6)NC(=O)C(NC5=O)C)C)C(=O)NC(CO)C(=O)NC(C(C)CC)C(=O)NC(CC7=CN=CN7)C(=O)NC(C(C)C)C(=O)NC(=C)C(=O)NC(CCCCN)C(=O)O)CC8=CN=CN8)C)C)C)CC(C)C [Nisin]
main component drawn
Conditions | Bliss interaction score
[1] | -0.0689
[2] | -0.191
[3] | 0.112
[4] | -0.0406

fitness, [5], main component drawn
Conditions | first compound 37.5 µg/mL | first compound 75 µg/mL | first compound 150 µg/mL
partner 0.5 µg/mL | 0.78 | 0.711 | 0.516
partner 1 µg/mL | 0.754 | 0.575 | 0.269
partner 2 µg/mL | 0.473 | 0.165 | 0.0302

fitness, [5], one replicate, main component drawn
Conditions | partner 1.25 µg/mL | partner 1.6 µg/mL | partner 2.5 µg/mL | partner 3.2 µg/mL | partner 4 µg/mL | partner 5 µg/mL | partner 6.4 µg/mL | partner 8 µg/mL | partner 16 µg/mL
first compound 37.5 µg/mL | 0.807 | 0.409 | 0.293 | 0.0184 | 0.0266 | 0.0118 | 0.0283 | 0.0124 | 0.0057
first compound 75 µg/mL | 0.809 | 0.178 | 0.0249 | 0.0153 | 0.116 | 0.0085 | 0.0276 | 0.0348 | 0.0088
first compound 150 µg/mL | 0.611 | 0.0142 | 0.0156 | 0.0131 | 0.0334 | 0.0106 | 0.0205 | 0.0221 | 0.0151

CC(=O)NC[C@H]1CN(c2ccc(N3CCOCC3)c(F)c2)C(=O)O1 [Linezolid] + CO[C@@H]1[C@@H](OC(N)=O)[C@@H](O)[C@H](Oc2ccc3c(O)c(NC(=O)c4ccc(O)c(CC=C(C)C)c4)c(=O)oc3c2C)OC1(C)C [Novobiocin]
Conditions | Bliss interaction score
[1] | -0.123
[2] | 0.046
[3] | 0.0413
[4] | 0.0424

fitness, [5], one replicate
Conditions | partner 0.05 µg/mL | partner 0.1 µg/mL | partner 0.125 µg/mL | partner 0.2 µg/mL | partner 0.25 µg/mL | partner 0.5 µg/mL
first compound 0.0625 µg/mL | 0.871 | 0.925 | – | 0.885 | – | –
first compound 0.125 µg/mL | – | 0.595 | 0.846 | 0.554 | 0.727 | 0.578
first compound 0.25 µg/mL | – | 0.0625 | 0.349 | 0.0582 | 0.218 | 0.242
first compound 0.5 µg/mL | – | – | 0.069 | – | 0.0496 | 0.0575

fitness, [5]
Conditions | first compound 0.125 µg/mL | first compound 0.25 µg/mL | first compound 0.5 µg/mL
partner 0.0125 µg/mL | 0.659 | 0.23 | 0.0324
partner 0.025 µg/mL | 0.574 | 0.182 | 0.0304
partner 0.05 µg/mL | 0.597 | 0.0885 | 0.0285

CO[C@@H]1[C@@H](OC(N)=O)[C@@H](O)[C@H](Oc2ccc3c(O)c(NC(=O)c4ccc(O)c(CC=C(C)C)c4)c(=O)oc3c2C)OC1(C)C [Novobiocin] + CN[C@@H]1[C@H](O[C@H]2[C@H](O[C@H]3[C@H](O)[C@@H](O)[C@H](N=C(N)N)[C@@H](O)[C@@H]3N=C(N)N)O[C@@H](C)[C@]2(O)C=O)O[C@@H](CO)[C@H](O)[C@H]1O [Streptomycin]
Conditions | Bliss interaction score
[1] | 0.0562
[2] | 0.133
[3] | -0.172
[4] | -0.111

fitness, [5]
Conditions | first compound 0.0125 µg/mL | first compound 0.025 µg/mL | first compound 0.05 µg/mL
partner 2 µg/mL | 0.967 | ≥ 1 | 0.938
partner 4 µg/mL | – | 0.725 | 0.873
partner 8 µg/mL | 0.0452 | 0.0379 | 0.0344

fitness, [5], one replicate
Conditions | first compound 0.125 µg/mL | first compound 0.25 µg/mL | first compound 0.5 µg/mL
partner 2 µg/mL | 0.926 | 0.843 | 0.592
partner 4 µg/mL | 0.928 | 0.836 | 0.537
partner 8 µg/mL | 0.135 | 0.044 | 0.0121

CC[C@H](C)[C@H](N)C1=N[C@H](C(=O)N[C@@H](CC(C)C)C(=O)N[C@H](CCC(=O)O)C(=O)N[C@H](C(=O)N[C@H]2CCCCNC(=O)[C@H](CC(N)=O)NC(=O)[C@@H](CC(=O)O)NC(=O)[C@H](Cc3cnc[nH]3)NC(=O)[C@@H](Cc3ccccc3)NC(=O)[C@H]([C@@H](C)CC)NC(=O)[C@@H](CCCN)NC2=O)[C@@H](C)CC)CS1 [Bacitracin] + C[C@H]1COc2c(N3CCN(C)CC3)c(F)cc3c(=O)c(C(=O)O)cn1c23 [Levofloxacin]
main component drawn
Conditions | Bliss interaction score
[1] | -0.072
[2] | 0.0288
[3] | -0.043
[4] | 0.034

fitness, [5], one replicate, main component drawn
Conditions | first compound 37.5 µg/mL | first compound 75 µg/mL | first compound 150 µg/mL
partner 0.001 µg/mL | 0.94 | 0.969 | 0.728
partner 0.0078 µg/mL | 0.842 | 0.844 | 0.439

fitness, [5], main component drawn
Conditions | partner 0.002 µg/mL | partner 0.0039 µg/mL | partner 0.0312 µg/mL | partner 0.0625 µg/mL | partner 0.125 µg/mL
first compound 37.5 µg/mL | 0.812 | 0.851 | 0.0268 | 0.0345 | 0.0392
first compound 75 µg/mL | 0.851 | 0.818 | 0.0206 | 0.0236 | 0.0256
first compound 150 µg/mL | 0.527 | 0.55 | 0.0178 | 0.0214 | 0.0173

CC[C@H](C)[C@H](N)C1=N[C@H](C(=O)N[C@@H](CC(C)C)C(=O)N[C@H](CCC(=O)O)C(=O)N[C@H](C(=O)N[C@H]2CCCCNC(=O)[C@H](CC(N)=O)NC(=O)[C@@H](CC(=O)O)NC(=O)[C@H](Cc3cnc[nH]3)NC(=O)[C@@H](Cc3ccccc3)NC(=O)[C@H]([C@@H](C)CC)NC(=O)[C@@H](CCCN)NC2=O)[C@@H](C)CC)CS1 [Bacitracin] + C[C@H]1c2cccc(O)c2C(=O)C2=C(O)[C@]3(O)C(=O)C(C(N)=O)=C(O)[C@@H](N(C)C)[C@@H]3[C@@H](O)[C@@H]21 [Doxycycline]
main component drawn
Conditions | Bliss interaction score
[1] | 0.0989
[2] | -0.0867
[3] | -0.0186
[4] | 0.101

fitness, [5], main component drawn
Conditions | first compound 37.5 µg/mL | first compound 75 µg/mL | first compound 150 µg/mL
partner 0.02 µg/mL | 0.844 | 0.81 | –
partner 0.04 µg/mL | 0.716 | 0.664 | 0.48
partner 0.08 µg/mL | 0.476 | 0.218 | 0.0689
